What was measured:
HSP90a protein = biological target: T1, HSP90a protein (Homo sapiens, UniProt P07900); experiment: HSP90α-binding fluorescent polarization (FP) assay, BODIPY-labeled RNK04010 probe; settings: FP competition with RNK04010 (BODIPY-labeled), 5 nM, 300 min at 25° C.
T1 construct: purchased BPS Bioscience 50298
Summary of the method: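 Compound dilutions (20 μM to 5.2 nM, 2.5-fold) are combined with 5 nM final labeled probe, and HSP90a N-terminal protein is added last. Plates are shaken briefly and held at 25° C for 120 min (FITC-geldanamycin) or 300 min (BODIPY-RNK04010), then FP is measured.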

KRAS(G12C) = KRAS(G12C) (Homo sapiens, UniProt P01116, G12C); experiment: KRAS(G12C)/SOS1 homogeneous time-resolved fluorescence (HTRF) assay; set-up: purchased Cisbio 63ADK000CB16PEG; settings: absence of GTP, 4° C. for 3 hr, read-out: KRAS (G12C) binding
Summary of the method: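 Three-hour incubation at 4 °C of 3-fold compound dilutions (lowest 1.02 nM) with KRAS(G12C), SOS1 and detection reagents, GTP absent. Disruption of the KRAS(G12C)/SOS1 complex detected by time-resolved fluorescence.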

[1] = tested on: NCI-H23 human non-small cell lung cancer; experiment: NCI-H23 CCK-8 proliferation assay; format: cell-based; settings: NCI-H23 cells, 72 hr
Method: The following cancer cell lines were employed: BT-474 human breast carcinoma (ATCC, #HTB-20); MIA PaCa-2 human pancreatic carcinoma [2 copies KRAS(G12C)](ATCC, #CRL-1420); NCI-H23 human non-small cell lung cancer [1 copy KRAS(G12C)](ATCC, #CRL-5800); NCI-H358 human non-small cell lung cancer [1 copy KRAS(G12C)](ATCC, #CRL-5807); LU65A human lung carcinoma (Pharmaron, Beijing, China). Cell lines were cultured essentially according to ATCC and Pharmaron recommendations.
Cancer Cell Line Proliferation (CCK-8) Assays
3-fold serial dilutions of each test compound were prepared ranging from 20 μM to 1.02 nM.
% Inhibition=100−(D−B)/(S−B)*100%. • S: Absorbance of cells treated with DMSO • D: Absorbance of compound-treated cells • B: Absorbance of medium with DMSO without cells

[2] = tested on: NCI-H358 human non-small cell lung cancer; experiment: NCI-H358 CCK-8 proliferation assay; format: cell-based; settings: NCI-H358 cells, 72 hr
Summary of the method: (§1)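 Compounds were tested as a 3-fold series from 20 μM down to 1.02 nM in CCK-8 absorbance assays. The lines used were NCI-H23 and NCI-H358, each with 1 KRAS(G12C) copy, and MIA PaCa-2 with 2 copies. Inhibition was derived relative to DMSO controls, with a no-cell blank subtracted.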

[3] = tested on: MIA PaCa-2 human pancreatic carcinoma; experiment: MIA PaCa-2 CCK-8 proliferation assay; format: cell-based; settings: Homo sapiens, MIA PaCa-2, 72 h, MIA PaCa-2 cells
Summary of the method: as §1

KRAS(G12C), sequence (P01116 1-188 isoform P01116-2 G12C): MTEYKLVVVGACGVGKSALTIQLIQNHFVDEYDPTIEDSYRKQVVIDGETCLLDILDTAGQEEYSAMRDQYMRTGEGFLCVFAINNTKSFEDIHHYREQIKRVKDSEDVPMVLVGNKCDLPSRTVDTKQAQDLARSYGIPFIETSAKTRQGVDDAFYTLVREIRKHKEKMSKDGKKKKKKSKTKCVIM

Row | IC50 (HSP90a protein) | IC50 (KRAS(G12C)) | EC50 [1] | EC50 [2] | EC50 [3] | Structure (SMILES)
1 | 100 to 1000 nM | > 1000 nM | 100 to 1000 nM | 100 to 1000 nM |  | C=CC(=O)N1CCN(c2nc(NCCC(=O)N3CCC(CN4CCN(Cc5ccc(-n6c(C(=O)NCC(F)(F)F)nnc6-c6cc(CC)c(O)cc6O)cc5)CC4)CC3)nc3c2CCN(c2cccc4ccccc24)C3)C[C@H]1CC#N [Compound 76, (R)-4-(4-((4-((1-(3-((4-(4-acryloyl-3-(cyanomethyl)piperazin-1-yl)-7-(naphthalen-1-yl)-5,6,7,8-tetrahydropyrido[3,4-d]pyrimidin-2-yl)amino)propanoyl)piperidin-4-yl)methyl)piperazin-1-yl)methyl)phenyl)-5-(5-ethyl-2,4-dihydroxyphenyl)-N-(2,2,2-trifluoroethyl)-4H-1,2,4-triazole-3-carboxamide, trifluoroacetic acid]
2 | < 100 nM | > 1000 nM | 100 to 1000 nM | 100 to 1000 nM |  | CCc1cc(-c2nnc(C(=O)NC(C)C)n2-c2ccc(CN3CCN(CC4CCN(C(=O)CCNc5nc6c(c(N7CCN(C(C)=O)CC7)n5)CCN(c5cc(O)cc7ccccc57)C6)CC4)CC3)cc2)c(O)cc1O [Compound 55, 4-(4-((4-((1-(3-((4-(4-acetylpiperazin-1-yl)-7-(3-hydroxynaphthalen-1-yl)-5,6,7,8-tetrahydropyrido[3,4-d]pyrimidin-2-yl)amino)propanoyl)piperidin-4-yl)methyl)piperazin-1-yl)methyl)phenyl)-5-(5-ethyl-2,4-dihydroxyphenyl)-N-isopropyl-4H-1,2,4-triazole-3-carboxamide, trifluoroacetic acid]
3 | 100 to 1000 nM | > 1000 nM | 100 to 1000 nM | 100 to 1000 nM |  | C=CC(=O)N1CCN(c2nc(NCCC(=O)NCC3CCC(C(=O)N4CCN(Cc5ccc(-n6c(O)nnc6-c6cc(CC)c(O)cc6O)cc5)CC4)CC3)nc3c2CCN(c2cc(O)cc4ccccc24)C3)CC1 (stereo not drawn) [Compound 23, 3-((4-(4-acryloylpiperazin-1-yl)-7-(3-hydroxynaphthalen-1-yl)-5,6,7,8-tetrahydropyrido[3,4-d]pyrimidin-2-yl)amino)-N-((4-(4-(4-(3-(5-ethyl-2,4-dihydroxyphenyl)-5-hydroxy-4H-1,2,4-triazol-4-yl)benzyl)piperazine-1-carbonyl)cyclohexyl)methyl)propanamide, trifluoroacetic acid]
4 | 100 to 1000 nM |  | 100 to 1000 nM | < 100 nM | 100 to 1000 nM | CCC(=O)N1CCN(c2nc(NCCC(=O)N3CCC(CN4CCN(Cc5ccc(-n6c(C(=O)NC7(C)CC7)nnc6-c6cc(CC)c(O)cc6O)cc5)CC4)CC3)nc3c2CCN(c2cc(O)cc4ccccc24)C3)CC1 [Compound 120, 5-(5-ethyl-2,4-dihydroxyphenyl)-4-(4-((4-((1-(3-((7-(3-hydroxynaphthalen-1-yl)-4-(4-propionylpiperazin-1-yl)-5,6,7,8-tetrahydropyrido[3,4-d]pyrimidin-2-yl)amino)propanoyl)piperidin-4-yl)methyl)piperazin-1-yl)methyl)phenyl)-N-(1-methylcyclopropyl)-4H-1,2,4-triazole-3-carboxamide, trifluoroacetic acid]
5 | 100 to 1000 nM | > 1000 nM | 100 to 1000 nM | 100 to 1000 nM |  | C=CC(=O)N1CCN(c2nc(NCCC(=O)N3CCC(CN4CCN(Cc5ccc(-n6c(C(=O)NCC(F)(F)F)nnc6-c6cc(C)c(O)cc6O)cc5)CC4)CC3)nc3c2CCN(c2cccc4cccc(Cl)c24)C3)C[C@H]1CC#N [Compound 79, (R)-4-(4-((4-((1-(3-((4-(4-acryloyl-3-(cyanomethyl)piperazin-1-yl)-7-(8-chloronaphthalen-1-yl)-5,6,7,8-tetrahydropyrido[3,4-d]pyrimidin-2-yl)amino)propanoyl)piperidin-4-yl)methyl)piperazin-1-yl)methyl)phenyl)-5-(2,4-dihydroxy-5-methylphenyl)-N-(2,2,2-trifluoroethyl)-4H-1,2,4-triazole-3-carboxamide, trifluoroacetic acid]
6 | < 100 nM |  | 100 to 1000 nM | 100 to 1000 nM | 100 to 1000 nM | CCC(=O)N1CCN(c2nc(NCCC(=O)N3CCC(CN4CCN(Cc5ccc(-n6c(C(=O)NC7CC7)nnc6-c6cc(CC)c(O)cc6O)cc5)CC4)CC3)nc3c2CCN(c2cc(O)cc4ccccc24)C3)CC1 [Compound 116, N-cyclopropyl-5-(5-ethyl-2,4-dihydroxyphenyl)-4-(4-((4-((1-(3-((7-(3-hydroxynaphthalen-1-yl)-4-(4-propionylpiperazin-1-yl)-5,6,7,8-tetrahydropyrido[3,4-d]pyrimidin-2-yl)amino)propanoyl)piperidin-4-yl)methyl)piperazin-1-yl)methyl)phenyl)-4H-1,2,4-triazole-3-carboxamide, trifluoroacetic acid]
7 | < 100 nM |  | 100 to 1000 nM | < 100 nM | 100 to 1000 nM | CCNC(=O)c1nnc(-c2cc(CC)c(O)cc2O)n1-c1ccc(CN2CCN(CC3CCN(C(=O)CCNc4nc5c(c(N6CCN(C(=O)CC)CC6)n4)CCN(c4cc(O)cc6ccccc46)C5)CC3)CC2)cc1 [Compound 121, N-ethyl-5-(5-ethyl-2,4-dihydroxyphenyl)-4-(4-((4-((1-(3-((7-(3-hydroxynaphthalen-1-yl)-4-(4-propionylpiperazin-1-yl)-5,6,7,8-tetrahydropyrido[3,4-d]pyrimidin-2-yl)amino)propanoyl)piperidin-4-yl)methyl)piperazin-1-yl)methyl)phenyl)-4H-1,2,4-triazole-3-carboxamide, trifluoroacetic acid]
8 | < 100 nM |  | 100 to 1000 nM | 100 to 1000 nM | 100 to 1000 nM | C=CC(=O)N1CCN(c2nc(NCCC(=O)NCc3ccc(CN4CCC(Cc5ccc(-n6c(C(=O)NCC(F)(F)F)nnc6-c6cc(C(C)C)c(O)cc6O)cc5)CC4)cc3)nc3c2CCN(c2cc(O)cc4ccccc24)C3)CC1 [Compound 25, 4-(4-((1-(4-((3-((4-(4-acryloylpiperazin-1-yl)-7-(3-hydroxynaphthalen-1-yl)-5,6,7,8-tetrahydropyrido[3,4-d]pyrimidin-2-yl)amino)propanamido)methyl)benzyl)piperidin-4-yl)methyl)phenyl)-5-(2,4-dihydroxy-5-isopropylphenyl)-N-(2,2,2-trifluoroethyl)-4H-1,2,4-triazole-3-carboxamide, trifluoroacetic acid]
9 | 100 to 1000 nM |  | 100 to 1000 nM | 100 to 1000 nM | 100 to 1000 nM | CC(=O)N1CCN(c2nc(NCCC(=O)N3CCC(Cc4ccc(CN(C)Cc5ccc(-n6c(C(=O)NCC(F)(F)F)nnc6-c6cc(C(C)C)c(O)cc6O)cc5)cc4)CC3)nc3c2CCN(c2cc(O)cc4ccccc24)C3)CC1 [Compound 112, 4-(4-(((4-((1-(3-((4-(4-acetylpiperazin-1-yl)-7-(3-hydroxynaphthalen-1-yl)-5,6,7,8-tetrahydropyrido[3,4-d]pyrimidin-2-yl)amino)propanoyl)piperidin-4-yl)methyl)benzyl)(methyl)amino)methyl)phenyl)-5-(2,4-dihydroxy-5-isopropylphenyl)-N-(2,2,2-trifluoroethyl)-4H-1,2,4-triazole-3-carboxamide, trifluoroacetic acid]
